In patent US10829520B2, “Beta-hairpin peptidomimetics” (POLYPHOR AG, priority 2015, dated 2020):
Where a SMILES comes first, the peptide text is derived from it. Bridges are numbered along the chain shown (N, C = ends). Roman numbers before positions name the chains, in order. [ ]: non-standard residue; d: D form. Tle = CC(C)(C)[C@H](N)C(=O)O; dDab = NCC[C@@H](N)C(=O)O; Nle = CCCC[C@H](N)C(=O)O; Dab = NCC[C@H](N)C(=O)O; dAze = O=C(O)[C@H]1CCN1; Dap = NC[C@H](N)C(=O)O; Sar = CNCC(=O)O

How the values were obtained:
Assay type in all cases: cell-based
[1] = system: Acinetobacter baumannii 872842; conditions: 872842
[2] = system: Acinetobacter baumannii DSM 30008; conditions: DSM 30008
How it was run: (§1)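 Minimal inhibitory concentrations were recorded in μg/mL after the strains grew 18-20 hours at 35° C with two-fold serial peptide dilutions. The medium was Mueller-Hinton II (cation-adjusted) with 0.002% Polysorbate 80, and the inoculum was about 10^6 CFU/mL.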

Escherichia coli 926415 = conditions: 926415
[3] = system: Escherichia coli ATCC 25922; conditions: ATCC 25922
How it was run: as §1

[4] = system: Klebsiella pneumoniae 968733; conditions: 968733
[5] = system: Klebsiella pneumoniae SSI #3010; conditions: SSI #3010
How it was run: as §1

[6] = system: Pseudomonas aeruginosa ATCC 27853; conditions: ATCC 27853
How it was run: as §1

[7] = system: human red blood cells (hRBC); test: Hemolysis of human red blood cells; conditions: red cells of human, 1 h
How it was run: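 hRBC washed 3× PBS; 20% v/v, ~0.9×10^9 cells/mL final. Peptide 100 μg/mL, 1 h, 37° C., 300 rpm. Spin, supernatant diluted 8×, OD540. 0% = PBS + 0.001% acetic acid; 100% = 2.5% Triton X-100. % hemolysis = OD540 peptide/OD540 full lysis × 100.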

SMILES | Acinetobacter baumannii 872842 MIC [1] | Acinetobacter baumannii DSM 30008 MIC [2] | Escherichia coli 926415 MIC (Escherichia coli 926415) | Escherichia coli ATCC 25922 MIC [3] | Klebsiella pneumoniae 968733 MIC [4] | Klebsiella pneumoniae SSI #3010 MIC [5] | Pseudomonas aeruginosa ATCC 27853 MIC [6] | Hemolysis at 100 μg/mL ([7]; 100 μg/mL) | Hemolysis at 100 μg/mL [7]; 100
CC(C)C[C@@H]1NC(=O)[C@@H](NC(=O)[C@@H](N)Cc2c[nH]c3ccccc23)CSSC[C@@H](C(=O)NCC(=O)N[C@@H](CCN)C(=O)N[C@H](C(=O)N[C@@H](CCN)C(=O)N[C@H]2CCNC(=O)[C@H]([C@@H](C)O)NC(=O)[C@H](CCN)NC(=O)[C@H](CCN)NC(=O)[C@H](CC(C)C)NC(=O)[C@@H](CC(C)C)NC(=O)[C@H](CCN)NC2=O)[C@@H](C)O)NC(=O)[C@H](CC(C)C)NC(=O)[C@H](CO)NC(=O)[C@H](Cc2ccc(O)cc2)NC(=O)[C@@H]2CCCN2C(=O)[C@H]2CCCN2C(=O)[C@H]([C@@H](C)O)NC(=O)[C@H](C)NC1=O [Ex. 145] (H-WCLAT[dP]PYSLCG[Dab]T[Dab][Dab][Dab][dL]L[Dab][Dab]T; disulfide 2-11; lactam 16-C) | 0.0625 µg/mL | 0.03125 µg/mL | 0.125 µg/mL | 0.0625 µg/mL | 0.5 µg/mL | 0.0625 µg/mL | 0.5 µg/mL | 3% | 
CC(C)C[C@@H]1NC(=O)[C@@H](CC(C)C)NC(=O)[C@H](CCN)NC(=O)[C@@H](NC(=O)[C@H](CCN)NC(=O)[C@@H](NC(=O)[C@H](CCN)NC(=O)CC[C@@H]2NC(=O)[C@H](CCN)NC(=O)[C@H](Cc3ccc(O)cc3)NC(=O)[C@H]([C@@H](C)O)NC(=O)[C@H](C(C)C)NC(=O)[C@@H]3CCCN3C(=O)[C@H]3CCN3C(=O)[C@H](CO)NC(=O)[C@H](C)NC(=O)[C@H](C(C)(C)C)NC(=O)[C@H](CCN)NC(=O)[C@H](Cc3c[nH]c4ccccc34)NC(=O)[C@H](CCN)NC(=O)[C@@H](CCN)NC2=O)[C@@H](C)O)CCNC(=O)[C@H]([C@@H](C)O)NC(=O)[C@H](CCN)NC(=O)[C@H](CCN)NC1=O [Ex. 82] (I: cyclo(AS[dAze]PVTY[Dab]E[dDab][Dab]W[Dab][Tle]) / II: [Dab]T[Dab][Dab][Dab][dL]L[Dab][Dab]T; amide I:9-II:N; lactam II:4-II:C) | 0.5 µg/mL | 1 µg/mL | 0.5 µg/mL | 0.5 µg/mL | 0.5 µg/mL | 0.5 µg/mL | 0.5 µg/mL |  | <1%
CCCC[C@@H]1NC(=O)[C@@H]2CCCN2C(=O)[C@H]2CCCN2C(=O)[C@H](CO)NC(=O)[C@H](CO)NC(=O)[C@H](C(C)(C)C)NC(=O)[C@@H](NC(=O)[C@@H](N)Cc2c[nH]c3ccccc23)CSSC[C@@H](C(=O)N(C)CC(=O)N[C@@H](CCN)C(=O)N[C@H](C(=O)N[C@@H](CCN)C(=O)N[C@H]2CCNC(=O)[C@H]([C@@H](C)O)NC(=O)[C@H](CCN)NC(=O)[C@H](CCN)NC(=O)[C@H](CC(C)C)NC(=O)[C@@H](CC(C)C)NC(=O)[C@H](CCN)NC2=O)[C@@H](C)O)NC(=O)[C@H](Cc2ccc(O)cc2)NC(=O)[C@H](CN)NC1=O [Ex. 147] (H-WC[Tle]SS[dP]P[Nle][Dap]YC[Sar][Dab]T[Dab][Dab][Dab][dL]L[Dab][Dab]T; disulfide 2-11; lactam 16-C) | 0.0625 µg/mL | 0.03125 µg/mL | 0.0625 µg/mL | 0.0625 µg/mL | 0.5 µg/mL | 0.0625 µg/mL | 1 µg/mL | <1% | 
